Test results reported in article PMC11645656, “MRGPRX4 mediates phospho-drug associated pruritus in a humanized mouse model” (Science translational medicine, 2024).
“And” between values parts separate entries of the source, which are not always exact repeats. Equal values may be shown once. Read-outs that look alike come from different tables or passages of the source.

Target: T1, MRGPRX4 (S83) (Homo sapiens, UniProt Q96LA9, L83S)
T1 construct: expressed in transfected cells
Assay: EC50 determination, intracellular calcium mobilization in MRGPRX4 stably expressed HEK293 cells (FLIPR Calcium 5, Flexstation-3)
Type: cell-based
Set-up: Fig. 1D dose-response, calcium mobilization response (individual replicate) / calcium mobilization response (Fig. 1D dose-response raw data): unit not given here
Conditions: for calcium mobilization response (Fig. 1D dose-response raw data): individual replicate values; for EC50: read-out: EC50; for Hill coefficient: dose-response curve fitting
Method: HEK293 cells and MRGPRX4 stably expressed HEK293 cells were seeded in 100 μl culture media on 96-well plates at a density of 40,000 cells per well and incubated overnight. The next day, the media were replaced with a dye-loading solution from the FLIPR Calcium 5 assay kit (Molecular Devices), diluted in Hank's Balanced Salt Solution (HBSS) with 20 mM HEPES, pH 7.4. After 1 h of incubation at 37°C, cells were allowed to recover for 10 min in the dark at room temperature prior to performing intracellular calcium mobilization assay in a Flexstation-3 instrument with SoftMax®Pro 7.1 software (Molecular Devices). Serial concentrations of tested drugs were prepared in HBSS/HEPES solution at 3X concentration. […] Compounds were tested in triplicates and the signals were averaged. Responses were determined by subtracting the minimum signal (at the baseline before adding the drug) from the maximum signal (obtained after drug stimulation). Four-parameter logistic (4PL) curve fit was used to plot the dose-response curves. […] Both dose-response curve fitting and EC50s calculation are computed with GraphPad Prism software (version: 6.o or above).

[1] = MRGPRX4 stably expressed HEK293 cells, calcium mobilization

T1 sequence (Q96LA9 whole entry L83S): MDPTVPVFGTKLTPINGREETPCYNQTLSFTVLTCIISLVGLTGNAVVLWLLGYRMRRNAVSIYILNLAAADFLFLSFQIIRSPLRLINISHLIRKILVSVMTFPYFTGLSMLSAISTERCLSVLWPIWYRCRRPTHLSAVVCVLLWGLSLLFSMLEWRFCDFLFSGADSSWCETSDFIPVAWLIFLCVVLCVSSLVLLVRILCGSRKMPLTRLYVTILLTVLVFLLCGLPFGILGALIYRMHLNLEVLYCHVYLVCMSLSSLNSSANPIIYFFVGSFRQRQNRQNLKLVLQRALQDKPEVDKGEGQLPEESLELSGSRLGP

`C[C@@H]1C[C@H]2[C@@H]3C[C@@H](O)C4=CC(=O)C=C[C@]4(C)[C@@]3(F)[C@@H](O)C[C@]2(C)[C@@]1(O)C(=O)CO` [6b-hydroxy Dexamethasone] was tested, and the “Fig. 1D dose-response, calcium mobilization response (individual replicate)” value (Concentration 9.76563e-7 M) was -11.185 and -2.950 and -9.064 and -1.271 and -4.466, the “Fig. 1D dose-response, calcium mobilization response (individual replicate)” value (Concentration 1.95313e-6 M) was -4.343 and -9.147 and -5.890 and -0.806 and -7.669 and the “Fig. 1D dose-response, calcium mobilization response (individual replicate)” value (Concentration 3.90625e-6 M) was -10.884 and -6.013 and -8.580 and -8.133 and -5.676. The “Fig. 1D dose-response, calcium mobilization response (individual replicate)” value (Concentration 7.8125e-6 M) was -1.007 and -6.768 and -0.871 and -6.992 and -1.487, the “Fig. 1D dose-response, calcium mobilization response (individual replicate)” value (Concentration 1.5625e-5 M) was -3.580 and -12.887 and -7.336 and -12.885 and -3.031 and the “Fig. 1D dose-response, calcium mobilization response (individual replicate)” value (Concentration 3.125e-5 M) was -6.945 and -4.243 and -10.704 and -6.397 and -13.033. The “Fig. 1D dose-response, calcium mobilization response (individual replicate)” value (Concentration 6.25e-5 M) was -3.167 and -3.420 and -21.978 and -8.518 and -4.898, the “Fig. 1D dose-response, calcium mobilization response (individual replicate)” value (Concentration 0.00025 M) was -19.291 and -10.466 and -0.309 and -10.053 and -7.780 and the “Fig. 1D dose-response, calcium mobilization response (individual replicate)” value (Concentration 0.0005 M) was -6.623 and -13.594 and -13.062 and -8.352 and -18.691. For the same compound, the “Fig. 1D dose-response, calcium mobilization response (individual replicate)” value (Concentration 0.001 M) was -11.685 and -12.391 and -8.163 and -15.688 and -9.331.
`CC[C@]1(c2ccccc2)NC(=O)N(C)C1=O` [(R)-mephenytoin] was tested, and the “calcium mobilization response (Fig. 1D dose-response raw data)” value (concentration 4.88281e-7 M) was -28.494 and -0.685 and -28.419 and -1.368 and -39.430 and -16.800 and -4.015 and -27.858 and -25.726, the “calcium mobilization response (Fig. 1D dose-response raw data)” value (concentration 9.76563e-7 M) was -7.288 and -19.217 and -18.327 and -17.700 and -9.222 and -17.910 and -11.024 and -17.403 and -16.404 and the “calcium mobilization response (Fig. 1D dose-response raw data)” value (concentration 1.95313e-6 M) was -4.806 and -21.809 and -22.673 and -18.368 and -20.701 and -10.218 and -45.398 and -2.556 and -1.333. The “calcium mobilization response (Fig. 1D dose-response raw data)” value (concentration 3.90625e-6 M) was -11.313 and -5.626 and -2.810 and -4.150 and -5.388 and -10.211 and -8.758 and -3.374 and -7.616, the “calcium mobilization response (Fig. 1D dose-response raw data)” value (concentration 7.8125e-6 M) was -13.282 and -38.673 and -86.390 and -55.539 and -30.274 and -52.531 and -40.546 and -63.168 and -34.632 and the “calcium mobilization response (Fig. 1D dose-response raw data)” value (concentration 1.5625e-5 M) was -73.173 and -60.784 and -5.824 and -52.600 and -25.248 and -61.934 and -57.691 and -23.069 and -59.022. The “calcium mobilization response (Fig. 1D dose-response raw data)” value (concentration 3.125e-5 M) was -77.603 and -4.145 and -51.921 and -55.448 and -9.903 and -68.319 and -36.832 and -68.498 and -28.339, the “calcium mobilization response (Fig. 1D dose-response raw data)” value (concentration 6.25e-5 M) was -22.173 and -48.350 and -3.409 and -11.978 and -30.555 and -31.399 and -12.734 and -38.906 and -22.292 and the “calcium mobilization response (Fig. 1D dose-response raw data)” value (concentration 0.00025 M) was -56.927 and -11.154 and -10.026 and -28.148 and -45.428 and -4.530 and -28.870 and -12.606 and -36.630. For the same compound, the “calcium mobilization response (Fig. 1D dose-response raw data)” value (concentration 0.0005 M) was -44.336 and -37.065 and -31.962 and -46.134 and -28.961 and -38.269 and -19.967 and -86.384 and -7.013.
For `CC[C@@]1(c2ccccc2)NC(=O)N(C)C1=O` [(S)-mephenytoin], the “calcium mobilization response (Fig. 1D dose-response raw data)” value (concentration 4.88281e-7 M) was -20.370 and -28.895 and -20.737 and -16.113 and -11.794 and -17.288 and -8.111 and -30.820 and -18.667, the “calcium mobilization response (Fig. 1D dose-response raw data)” value (concentration 9.76563e-7 M) was -14.910 and -10.110 and -14.446 and -15.834 and -19.023 and -15.341 and -3.659 and -28.710 and -12.463 and the “calcium mobilization response (Fig. 1D dose-response raw data)” value (concentration 1.95313e-6 M) was -18.478 and -17.267 and -18.784 and -17.855 and -11.934 and -14.257 and -17.051 and -23.967 and -8.270. For the same compound, the “calcium mobilization response (Fig. 1D dose-response raw data)” value (concentration 3.90625e-6 M) was -5.757 and -11.730 and -8.574 and 8.283 and -10.074 and -11.646 and -8.442 and -1.458 and -9.849, the “calcium mobilization response (Fig. 1D dose-response raw data)” value (concentration 7.8125e-6 M) was 26.923 and 9.795 and -10.857 and -10.275 and -14.955 and -11.140 and -1.065 and -2.234 and -1.955 and the “calcium mobilization response (Fig. 1D dose-response raw data)” value (concentration 1.5625e-5 M) was 9.387 and -3.753 and 17.104 and -13.591 and -6.859 and -9.499 and -1.610 and -1.506 and -0.489. The “calcium mobilization response (Fig. 1D dose-response raw data)” value (concentration 3.125e-5 M) was 7.318 and 16.609 and 24.858 and -11.449 and -15.821 and -20.419 and 0.176 and 0.206 and 0.166, the “calcium mobilization response (Fig. 1D dose-response raw data)” value (concentration 6.25e-5 M) was 20.640 and 67.105 and 19.512 and -1.060 and 14.827 and -6.587 and 28.221 and 5.104 and 23.894 and the “calcium mobilization response (Fig. 1D dose-response raw data)” value (concentration 0.00025 M) was 56.723 and 43.018 and 21.772 and 14.354 and 43.622 and 16.555 and 1.733 and 79.374 and 16.915. For the same compound, the “calcium mobilization response (Fig. 1D dose-response raw data)” value (concentration 0.0005 M) was -10.031 and 14.167 and 0.209 and 8.392 and 6.582 and -2.785 and 5.320 and 0.368 and 2.580.
In the case of `CNC[C@H](O)[C@@H](O)[C@H](O)[C@H](O)CO.CNC[C@H](O)[C@@H](O)[C@H](O)[C@H](O)CO.C[C@@H](O[C@H]1OCCN(Cc2nn(P(=O)(O)O)c(=O)[nH]2)[C@H]1c1ccc(F)cc1)c1cc(C(F)(F)F)cc(C(F)(F)F)c1` [Fosaprepitant dimeglumine], the EC50 [1] is reported as 7 µM and the Hill coefficient (table S1) is reported as 3.670.
`C[C@]12CCC(=O)C=C1CC[C@@H]1[C@@H]2[C@@H](O)C[C@@]2(C)[C@H]1CC[C@]2(O)C(=O)COC(=O)CCC(=O)O` [Hydrocortisone 21-hemisuccinate] gave an EC50 (table S1) greater than 500 µM.
Work on `C[C@]12CCC(=O)C=C1CC[C@@H]1[C@@H]2[C@@H](O)C[C@@]2(C)[C@H]1CC[C@]2(O)C(=O)COP(=O)([O-])[O-].[Na+].[Na+]` [Hydrocortisone sodium phosphate] yielded an EC50 [1] of 0.328 µM and a Hill coefficient (table S1) of 1.411.
For `O=C1NC(=O)C(c2ccccc2)(c2ccc(O)cc2)N1` (stereo not shown) [Hydroxyphenytoin], the “Fig. 1D dose-response, calcium mobilization response (individual replicate)” value (Concentration 9.76563e-7 M) was -13.997 and -18.908 and -71.107 and -31.060, the “Fig. 1D dose-response, calcium mobilization response (individual replicate)” value (Concentration 1.95313e-6 M) was -36.810 and -38.751 and -15.180 and -28.223 and the “Fig. 1D dose-response, calcium mobilization response (individual replicate)” value (Concentration 3.90625e-6 M) was -53.775 and -34.726 and -87.092 and -4.044. The “Fig. 1D dose-response, calcium mobilization response (individual replicate)” value (Concentration 7.8125e-6 M) was -6.273 and -4.175 and -11.050 and -115.284, the “Fig. 1D dose-response, calcium mobilization response (individual replicate)” value (Concentration 1.5625e-5 M) was -23.391 and -58.915 and -49.315 and -20.542 and the “Fig. 1D dose-response, calcium mobilization response (individual replicate)” value (Concentration 3.125e-5 M) was -58.615 and -86.247 and -12.733 and -61.272. The “Fig. 1D dose-response, calcium mobilization response (individual replicate)” value (Concentration 6.25e-5 M) was -83.462 and -33.574 and -53.783 and -75.169, the “Fig. 1D dose-response, calcium mobilization response (individual replicate)” value (Concentration 0.00025 M) was -7.298 and -62.458 and -53.853 and -44.871 and the “Fig. 1D dose-response, calcium mobilization response (individual replicate)” value (Concentration 0.0005 M) was -68.434 and -44.648 and -66.219 and -35.443. For the same compound, the “Fig. 1D dose-response, calcium mobilization response (individual replicate)” value (Concentration 0.001 M) was -67.062 and -39.432 and -24.454 and -47.392, the “calcium mobilization response (Fig. 1D dose-response raw data)” value (concentration 4.88281e-7 M) was -38.335 and -44.136 and -38.604 and -53.703 and -53.375 and the “calcium mobilization response (Fig. 1D dose-response raw data)” value (concentration 9.76563e-7 M) was -21.881 and -18.856 and -41.417 and -3.943 and -41.401. The “calcium mobilization response (Fig. 1D dose-response raw data)” value (concentration 1.95313e-6 M) was -33.904 and -36.161 and -55.798 and -55.451 and -16.637, the “calcium mobilization response (Fig. 1D dose-response raw data)” value (concentration 3.90625e-6 M) was -41.290 and -41.879 and -47.340 and -95.401 and -28.834 and the “calcium mobilization response (Fig. 1D dose-response raw data)” value (concentration 7.8125e-6 M) was -43.390 and -45.131 and -40.251 and -36.055 and -69.327. The “calcium mobilization response (Fig. 1D dose-response raw data)” value (concentration 1.5625e-5 M) was -49.874 and -56.147 and -54.231 and -13.701 and -87.936, the “calcium mobilization response (Fig. 1D dose-response raw data)” value (concentration 3.125e-5 M) was -55.112 and -52.780 and -54.634 and -28.441 and -50.624 and the “calcium mobilization response (Fig. 1D dose-response raw data)” value (concentration 6.25e-5 M) was -46.992 and -52.460 and -54.562 and -23.886 and -26.540. The “calcium mobilization response (Fig. 1D dose-response raw data)” value (concentration 0.00025 M) was -50.524 and -46.583 and -49.203 and -70.603 and -7.273 and the “calcium mobilization response (Fig. 1D dose-response raw data)” value (concentration 0.0005 M) was -43.005 and -35.783 and -32.491 and -3.926 and -40.291.
